Results on 15 molecules are retold here after PMC11195995, “A homogeneous time-resolved fluorescence screen to identify SIRT2 deacetylase and defatty-acylase inhibitors” (PLOS ONE, 2024).

What is called IC50 is the point on the concentration scale where inhibition reaches its midpoint.

For data set [1], the target named is T1, SIRT2 (Homo sapiens, UniProt Q8IXJ6).
T1 sequence (Q8IXJ6 34-356): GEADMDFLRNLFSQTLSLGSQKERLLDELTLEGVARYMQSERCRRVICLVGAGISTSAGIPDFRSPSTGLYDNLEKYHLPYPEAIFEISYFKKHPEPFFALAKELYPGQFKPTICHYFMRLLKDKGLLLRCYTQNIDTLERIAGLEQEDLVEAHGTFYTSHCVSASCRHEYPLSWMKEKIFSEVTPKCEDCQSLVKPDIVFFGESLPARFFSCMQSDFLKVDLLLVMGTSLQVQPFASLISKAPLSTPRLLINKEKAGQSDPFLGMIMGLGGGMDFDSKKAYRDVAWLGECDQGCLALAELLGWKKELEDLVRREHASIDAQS
The conditions noted are these: read-out: IC50 for SIRT2 demyristoylase activity; cited from earlier work.

The target in data set [2] is T1, SIRT2. The experiment in a line: SIRT2 deacetylase activity assay (MALDI-MS, acetyl-H4K16 peptide). The class given is biochemical. The conditions noted are these: for Deacetylase IC50: 4 μM acetyl-H4K16, 1 mM NAD+, 37°C, absolute IC50, "no effect" = 200 μM compound did not significantly affect SIRT2 activity. On the procedure: (§1) The enzymatic activity of SIRT2 was measured using a MALDI-MS—based protocol reported previously. Reactions were performed at 37°C for 2.5 min in PBS containing 1 mM DTT and 1 mM of NAD^+. Acylated H4K16 peptides were used as the substrates at the following concentrations: acetyl-H4K16, 4 μM; decanoyl-H4K16, 0.2 μM; dodecanoyl-H4K16, 0.5 μM; myristoyl-H4K16, 0.5 μM. These concentrations correspond to the enzyme’s Km for each substrate under saturating NAD^+ conditions. The enzyme concentration in each reaction was chosen such that 20% or less of the substrate was processed by the enzyme when the reactions were quenched. In dose-response assays showing a reduction in SIRT2 activity by increasing amounts of ligand, the data was fit with standard sigmoidal dose-response curves as we previously described. We report absolute IC50 values from the curves which reflect ligand concentrations that reduce the activity of the enzyme by 50% compared to control (no ligand) samples. Assays measuring the effects of ligand on SIRT1 deacetylase and SIRT6 demyristoylase activities were performed similarly, as previously described.

For data set [3], the target named is T1, SIRT2. Nature of the data set: SIRT2 binding competition assay using Cy3-myristoyl-H4K16 peptide. The conditions noted are these: concentrations as high as 100 μM. On the procedure: Competition assays where Cy3-myristoyl-H4K16 peptide was displaced from SIRT2 by 1 were performed as previously described. Assays were performed in PBS with 1 mM DTT at 23°C in a quartz microcuvette (160 μl assay volume). Briefly, the fluorescence intensity of 50 nM Cy3-myristoyl-H4K16 peptide was measured in the presence of 2.5 μM SIRT2 and increasing amounts of 1 using excitation/emission wavelengths of 535 nm/560 nm. The final DMSO concentration in each measurement was 0.6%. As previously described, displacement of Cy3-myristoyl-H4K16 peptide from SIRT2 by a competitive ligand results in a reduction of its fluorescence.
The data from both competition assays show a reduction in probe fluorescence at increasing concentrations of competitor ligands. […] We determined and report absolute IC50 values from the curves which reflect ligand concentrations that reduce the fluorescence by 50% compared to control (no ligand) samples.

Data set [4] has as its target T1, SIRT2. Nature of the data set: SIRT2 demyristoylase activity assay (MALDI-MS, myristoyl-H4K16 peptide). In kind it is biochemical. The conditions noted are these: for Demyristoylase IC50: 0.5 μM myristoyl-H4K16, 1 mM NAD+, 37°C, absolute IC50, "no effect" = 200 μM compound did not significantly affect SIRT2 activity. On the procedure: as §1
In data set [5] the target is T1, SIRT2. The experiment in a line: 1-aminoanthracene binding competition assay, SIRT2 alone. On the procedure: Competition assays where 1-aminoanthracene was displaced from SIRT2 by 2, 4, 5, and 6 were performed as previously reported where we described its displacement from SIRT2 by 3. The assays were also cuvette-based and performed at 23°C in PBS with 1 mM DTT, and the final DMSO concentration was 0.6%. Briefly, the fluorescence intensity of 100 nM 1-aminoanthracene was measured in the presence of 4 μM SIRT2 and increasing amounts of ligand using excitation/emission wavelengths of 390 nm/520 nm. As previously described, displacement of 1-aminoanthracene from SIRT2 by a competitor results in a reduction of its fluorescence.
We determined and report absolute IC50 values from the curves which reflect ligand concentrations that reduce the fluorescence by 50% compared to control (no ligand) samples.

Data set [6] has as its system acetylated alpha-tubulin in A549 cells. Nature of the data set: Immunofluorescence staining of acetylated alpha-tubulin in A549 cells. The class given is cell-based, human. Particulars: 25 μM, 6 hours. On the procedure:
100,000 A549 or A549 SIRT2-KO cells were seeded on a coverslip that was placed in the well of 6-well plate, and the cells were grown overnight in full DMEM. […] The cells were then washed three times with PBS, fixed with 4% paraformaldehyde for 10 min, then washed again three times with PBS. Cells were incubated with 0.2% Triton X-100 for 15 minutes on a shaker followed by three more PBS washes. The cells were then blocked with 2% BSA in PBS for 1 hour at room temperature. […] Slides were imaged using a Keyence BZ-X710 fluorescence microscope with the following filter settings: DAPI, excitation/emission was 300–400 nm/438-484 nm; Alexa Fluor 488, excitation/emission was 448 nm/500-550 nm. All images were obtained under identical conditions, and fluorescence intensities were quantified using Fiji/ImageJ without any manipulation to the images. The fluorescence intensity from at least six cells per coverslip were randomly selected and measured targeting the cytosol (for measuring acetylated alpha-tubulin levels via Alexa Fluor 488) or the nucleus (for measuring nuclear DNA staining via DAPI). Relative fluorescence intensity was calculated as the ratio of Alexa Fluor 488/DAPI intensities. […]

For data set [7], the system named is acetylated alpha-tubulin in A549 SIRT2-KO cells. Nature of the data set: Immunofluorescence staining of acetylated alpha-tubulin in A549 SIRT2-KO cells. In kind it is cell-based, human. Particulars: 25 μM, 6 hours.
The subject of the next data set is A549 cells. The experiment in a line: Cell viability MTT assay. The class given is cell-based, human. The conditions noted are these: 72 hours treatment, concentrations shown in Fig 4F and 4G. On the procedure:
5,000 A549 cells were seeded in a 96-well plate in full DMEM. The total volume in each well was 150 μl, and the DMSO concentration was 0.7%. After this treatment period, 10 μl of MTT reagent was added to each well, then the cells were cultured for 4 hour before adding 100 μl of crystal dissolving solution for another 16 hour incubation (Cayman Chemical, catalog #10009365). The absorbance in each well was measured at 570 nm and was used to determine the cell viability by comparing the absorbance of drug treated cells to control (DMSO treated) cells.

In data set [8] the target is SIRT2—decanoyl peptide complex. Details: method as in PMID 32941003. Particulars: cited from earlier work.
The target of data set [9] is T1, SIRT2. The conditions noted are these: read-out: Kd for SIRT2 alone; cited from earlier work.
Data set [10] concerns the target T2, 6xHis-SUMO-SIRT2 (human SIRT2 catalytic domain, amino acids 34-356, with N-terminal 6xHis-SUMO tag) (human, UniProt Q8IXJ6 34-356).
T2 construct: human SIRT2 catalytic domain, amino acids 34-356; Used in the HTRF assays; held near the FRET donor by a terbium cryptate-labeled anti-6xHis antibody (a tool); also called His tagged-SIRT2; sirtuin-2; not shown: His6, N-terminal, kept; SUMO, N-terminal, kept
T2 sequence (looked up): T1 sequence (Q8IXJ6 34-356)
The experiment in a line: AlphaScreen or HTRF; competition; 3 nM SIRT2, 0.2 nM terbium cryptate-labeled antibody, 3 nM FAM-myristoyl-H4K16 peptide, 10 ul/well; unlabeled myristoyl-H4K16 peptide as competitor. Particulars: both partners purified.

Data set [11] deals with T3, SIRT2 catalytic domain (human, amino acids 34-356), 6xHis-SUMO tag removed (human, UniProt Q8IXJ6 34-356).
T3 construct: human SIRT2 catalytic domain, amino acids 34-356; also called sirtuin-2; source: tag removed, chromatographically purified; not shown: His6, N-terminal, cleaved; SUMO, N-terminal, cleaved
T3 sequence (looked up): T1 sequence (Q8IXJ6 34-356)
The experiment in a line: ITC; PBS, 25°C; 20 uM SIRT2 in the cell, 200 uM peptide in the syringe; one site binding model. Particulars: both partners purified. (ITC needs no label: the signal is the heat of the interaction.)

In data set [12] the target is T2, 6xHis-SUMO-SIRT2 (human SIRT2 catalytic …). Nature of the data set: AlphaScreen or HTRF; direct binding; 6xHis-SUMO-SIRT2 and FAM-myristoyl-H4K16 peptide 0-10 nM each, 0.2 nM anti-6xHis terbium cryptate-labeled antibody as FRET donor; 384-well plates, room temperature, 10 mM Hepes-NaOH pH 7.4, 150 mM NaCl, 5 mM DTT, 0.005% Tween-20; apparent Kd. The conditions noted are these: both partners purified.

Entries after “also recorded” stand apart in the source; their conditions may differ. Like-named read-outs stand apart in the source and are kept apart here. Primed or numbered codes have the meaning given here. Ends that are not written are not given here. * marks the point of attachment. Myristoyl = CCCCCCCCCCCCCC(=O)*; PEG4′ = PEG4 linker; FAM = fluorescein

On to `Cc1ccc(C(=O)Nc2ccc(S(=O)(=O)O)c3cc(S(=O)(=O)O)cc(S(=O)(=O)O)c23)cc1NC(=O)c1cccc(NC(=O)Nc2cccc(C(=O)Nc3cc(C(=O)Nc4ccc(S(=O)(=O)O)c5cc(S(=O)(=O)O)cc(S(=O)(=O)O)c45)ccc3C)c2)c1` [suramin], for which the concentration for half-maximal inhibition (IC50) on SIRT2 [1] is 95 µM.
As for `O=C1CSc2nc3ccccc3n21` [compound 15, [1, 3]thiazolo[3,2-a]benzimidazole-3(2H)-one], the “Deacetylase IC50” value at SIRT2 [2] was “not effective; also recorded: no effect”. In addition, the “displacement of Cy3-myristoyl-H4K16 peptide from SIRT2 / interaction with SIRT2” value at SIRT2 [3] is listed as “too weak to measure a Kd; also recorded: did not efficiently displace”. This molecule returned an IC50 against SIRT2 [4] of 117 µM. Moreover, the “displacement of 1-aminoanthracene from SIRT2” value on SIRT2 [5] (concentrations as high as 100 μM) is “did not efficiently displace”.
In the case of `Oc1c(F)cc(Br)cc1F` [compound 12, 4-bromo-2,6-difluorophenol], the “Deacetylase IC50” value on SIRT2 [2] is on record as “no effect”. In addition, the “Demyristoylase IC50” value at SIRT2 [4] is “no effect”.
`Oc1c(I)cc(Br)cc1I` [compound 10, 4-bromo-2,6-diiodophenol]: the “Deacetylase IC50” value at SIRT2 [2] is given as “no effect”. For the same molecule, the “Demyristoylase IC50” value at SIRT2 [4] is “no effect”.
For the molecule `Oc1c(F)cc(Br)cc1I` [compound 9, 4-bromo-2-fluoro-6-iodophenol], the “Deacetylase IC50” value at SIRT2 [2] is “no effect”. The “Demyristoylase IC50” value at SIRT2 [4] is “no effect”.
`FC(F)(F)C1(c2ccccc2)N=N1` [compound 8, 3-phenyl-3-(trifluoromethyl)-3H-diazirine] showed an IC50 on SIRT2 [2] of 114 µM. Also, the “Demyristoylase IC50” value on SIRT2 [4] is recorded as “no effect”.
For `CCCCCc1ccc(C)cc1O` [compound 6, 5-methyl-2-pentylphenol], at SIRT2 [5] (SIRT2 only, 100 nM 1-aminoanthracene, 4 μM SIRT2), the IC50 turned out to be 81 µM. The Kd at SIRT2 [5] (read-out: SIRT2 Kd) stood at 73 µM.
Regarding `Oc1cc(C(F)(F)F)ccc1F` [compound 14, 2-fluoro-5-(trifluoromethyl)phenol], the “Deacetylase IC50” value on SIRT2 [2] is given as “no effect”. Further, the “Demyristoylase IC50” value on SIRT2 [4] is listed as “no effect”.
Take `Cc1cc(C)nc(SCC(=O)Nc2ncc(Cc3cccc4ccccc34)s2)n1` [SirReal2, reference compound]: the “level of acetylated alpha-tubulin (immunofluorescence)” value is on record as “increased acetylated alpha-tubulin to similar levels as 1; also recorded: enhanced fluorescence” in data set [6] and “no effect” in data set [7]. Further, in the data set with A549 cells, the “viability / toxicity in A549 cells (MTT)” value is “did not cause toxicity; also recorded: no effect”.
At SIRT2 [5], `Cc1ccc(C(C)C)c(O)c1` [compound 4, 2-isopropyl-5-methylphenol] yielded an IC50 of 128 µM and a Kd of 116 µM.
For `Nc1cccc2cc3ccccc3cc12` [1-aminoanthracene], the Kd in data set [8] was 4 µM; on SIRT2 [9] it was 37 µM. In addition, at SIRT2 [1], the half-inhibitory concentration (IC50) is 21 µM.
Consider `Oc1ccc(Br)cc1C(F)(F)F` [compound 11, 4-bromo-2-(trifluoromethyl)phenol], for which the “Deacetylase IC50” value at SIRT2 [2] is “no effect”. The “Demyristoylase IC50” value at SIRT2 [4] is “no effect”.
In the case of `CCCCOc1cc(F)c(O)c(F)c1` [compound 13, 4-butoxy-2,6-difluorophenol], the “Deacetylase IC50” value at SIRT2 [2] is recorded as “no effect”. Besides, the “Demyristoylase IC50” value at SIRT2 [4] is reported as “no effect”.
In turn, KGLGKGGAK(Myristoyl)RHRK had a half-inhibitory concentration (IC50) in data set [10] of 0.002 µM. The molecule also yielded a Kd in [11] of 0.013 µM.
Take {FAM-PEG4′}-KGLGKGGAK(Myristoyl)RHRK: the Kd in data set [12] is about 0.001 µM.
